From patent publication US8697865B2, “Cyclic amide derivative, and its production and use” (Takeda Pharmaceutical Company Limited, priority 2004, dated 2014)
Where a name gives a salt, the structure may show the parent alone.

Legend:
[1] = target: human FXa (Homo sapiens, UniProt P00742); assay: Inhibitory action of human activated blood coagulation factor X (FXa); format: biochemical; settings: chromogenic substrate S-2765, 37° C., absorbance at 405 nm, read-out: IC50 (concentration inhibiting FXa activity by 50%)
human FXa, sequence (P00742 235-488 limits assumed): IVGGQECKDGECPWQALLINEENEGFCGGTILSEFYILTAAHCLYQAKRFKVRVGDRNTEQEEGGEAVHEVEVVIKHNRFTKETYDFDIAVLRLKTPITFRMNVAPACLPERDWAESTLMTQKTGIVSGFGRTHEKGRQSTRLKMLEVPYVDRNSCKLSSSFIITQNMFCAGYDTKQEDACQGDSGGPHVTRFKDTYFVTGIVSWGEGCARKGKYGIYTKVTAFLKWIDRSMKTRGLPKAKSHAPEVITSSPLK
human FXa, sequence (P00742 41-179 partner limits assumed): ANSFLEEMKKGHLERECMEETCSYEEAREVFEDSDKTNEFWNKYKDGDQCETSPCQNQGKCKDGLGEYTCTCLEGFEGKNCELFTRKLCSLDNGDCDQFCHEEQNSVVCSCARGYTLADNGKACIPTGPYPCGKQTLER

Compound | IC50 [1] [nM] | melting point [°C]
N=C1CCCCN1C1CCN(C(=O)[C@H](O)CS(=O)(=O)c2ccc3cc(Cl)ccc3c2)CC1 [Example 43, (2S)-3-[(6-Chloronaphthalen-2-yl)sulfonyl]-1-(2-imino-1,4′-bipiperidin-1′-yl)-1-oxopropan-2-ol trifluoroacetate] | 4.8 | –
O=C([C@H](O)CS(=O)(=O)c1ccc2cc(Cl)ccc2c1)N1CCN(N2CCCCC2=O)CC1 [Example 8, 1-(4-{(2S)-3-[(6-Chloronaphthalen-2-yl)sulfonyl]-2-hydroxypropanoyl}piperazin-1-yl)piperidin-2-one] | 6.6 | 198
O=C(CCS(=O)(=O)c1ccc2cc(Cl)ccc2c1)N1CCN(N2CCCNC2=O)CC1 [Example 33, 1-(1-{3-[(6-Chloronaphthalen-2-yl)sulfonyl]propanoyl}piperazin-4-yl)tetrahydropyrimidin-2(1H)-one] | 9.9 | –
O=C([C@H](O)CS(=O)(=O)c1ccc2cc(Cl)ccc2c1)N1CCN(N2CCCNC2=O)CC1 [Example 25, 1-(4-{(2S)-3-[(6-Chloronaphthalen-2-yl)sulfonyl]-2-hydroxypropanoyl}piperazin-1-yl)tetrahydropyrimidin-2(1H)-one] | 4.2 | –
